Test results taken from ChEMBL document CHEMBL5291721, “A preclinical secondary pharmacology resource illuminates target-adverse drug reaction associations of marketed drugs” (Nat Commun, 2023).

Key:
[1] = target: T1, Adenosine receptor A1 (Homo sapiens, UniProt P30542)
T1 sequence (P30542 whole entry): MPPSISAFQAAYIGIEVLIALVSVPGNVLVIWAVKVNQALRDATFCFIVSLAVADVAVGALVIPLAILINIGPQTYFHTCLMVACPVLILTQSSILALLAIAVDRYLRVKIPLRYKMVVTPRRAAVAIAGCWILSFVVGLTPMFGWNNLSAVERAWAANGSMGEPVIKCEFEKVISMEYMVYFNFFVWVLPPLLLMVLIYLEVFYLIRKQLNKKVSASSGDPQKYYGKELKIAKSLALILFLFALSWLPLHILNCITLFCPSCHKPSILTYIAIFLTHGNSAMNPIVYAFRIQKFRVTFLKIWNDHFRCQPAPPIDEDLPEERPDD

[2] = target: T2, Alpha-2A adrenergic receptor (Homo sapiens, UniProt P08913); assay type: functional, cell-based
T2 sequence (P08913 whole entry): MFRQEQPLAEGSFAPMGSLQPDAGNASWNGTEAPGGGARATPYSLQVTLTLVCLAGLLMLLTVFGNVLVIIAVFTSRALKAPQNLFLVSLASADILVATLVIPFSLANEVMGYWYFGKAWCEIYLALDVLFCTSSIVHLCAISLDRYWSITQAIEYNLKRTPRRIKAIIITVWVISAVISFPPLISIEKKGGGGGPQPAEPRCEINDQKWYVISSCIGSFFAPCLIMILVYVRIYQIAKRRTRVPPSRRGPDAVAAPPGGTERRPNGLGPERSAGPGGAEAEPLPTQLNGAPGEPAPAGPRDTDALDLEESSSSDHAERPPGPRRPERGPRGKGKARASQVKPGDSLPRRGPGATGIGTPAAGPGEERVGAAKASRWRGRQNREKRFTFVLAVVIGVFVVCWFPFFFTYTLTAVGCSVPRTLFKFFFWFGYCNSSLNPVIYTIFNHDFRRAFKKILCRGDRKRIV

[3] = target: Vasopressin V2 receptor (Homo sapiens, UniProt P30518)
Chain of Vasopressin V2 receptor (P30518 whole entry): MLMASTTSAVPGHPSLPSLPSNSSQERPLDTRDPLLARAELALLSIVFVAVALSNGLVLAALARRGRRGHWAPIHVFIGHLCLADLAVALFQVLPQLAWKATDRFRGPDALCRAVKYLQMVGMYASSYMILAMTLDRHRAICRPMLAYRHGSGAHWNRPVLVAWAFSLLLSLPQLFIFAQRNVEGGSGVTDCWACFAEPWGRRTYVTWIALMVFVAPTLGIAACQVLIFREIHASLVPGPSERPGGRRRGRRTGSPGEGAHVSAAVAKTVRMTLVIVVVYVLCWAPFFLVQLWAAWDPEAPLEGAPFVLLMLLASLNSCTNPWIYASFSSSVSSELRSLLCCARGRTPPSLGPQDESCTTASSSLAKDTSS

[4] = target: T3, Gastrin/cholecystokinin type B receptor (Homo sapiens, UniProt P32239)
T3 sequence (P32239 whole entry): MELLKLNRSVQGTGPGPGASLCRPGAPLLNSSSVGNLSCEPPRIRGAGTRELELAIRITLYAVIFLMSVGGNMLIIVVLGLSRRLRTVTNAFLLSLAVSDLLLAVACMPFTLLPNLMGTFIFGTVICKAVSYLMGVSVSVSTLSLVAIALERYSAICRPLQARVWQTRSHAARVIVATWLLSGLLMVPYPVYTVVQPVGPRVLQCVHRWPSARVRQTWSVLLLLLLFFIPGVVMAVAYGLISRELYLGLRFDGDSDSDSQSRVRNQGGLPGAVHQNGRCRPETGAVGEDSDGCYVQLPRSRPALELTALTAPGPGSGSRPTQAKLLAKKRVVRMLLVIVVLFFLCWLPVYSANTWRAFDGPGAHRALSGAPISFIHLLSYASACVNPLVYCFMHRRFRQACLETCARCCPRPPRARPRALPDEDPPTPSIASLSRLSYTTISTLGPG

[5] = target: Cannabinoid receptor 1 (Homo sapiens, UniProt P21554); assay type: functional, cell-based
Chain of Cannabinoid receptor 1 (P21554 whole entry): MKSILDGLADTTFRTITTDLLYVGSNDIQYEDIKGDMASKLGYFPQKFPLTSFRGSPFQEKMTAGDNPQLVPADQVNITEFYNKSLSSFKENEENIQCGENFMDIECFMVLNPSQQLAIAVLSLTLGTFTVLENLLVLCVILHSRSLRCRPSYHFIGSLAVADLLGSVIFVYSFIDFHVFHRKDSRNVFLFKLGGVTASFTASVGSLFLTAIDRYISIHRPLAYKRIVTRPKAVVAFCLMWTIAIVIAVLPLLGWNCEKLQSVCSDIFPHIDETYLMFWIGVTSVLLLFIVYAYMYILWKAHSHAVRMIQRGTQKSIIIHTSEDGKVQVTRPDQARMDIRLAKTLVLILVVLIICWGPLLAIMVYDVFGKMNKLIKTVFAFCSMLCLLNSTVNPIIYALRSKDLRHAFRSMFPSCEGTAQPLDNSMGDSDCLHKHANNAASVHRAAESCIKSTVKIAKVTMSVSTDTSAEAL

[6] = target: Gamma-aminobutyric acid receptor subunit alpha-1 (Rattus norvegicus, UniProt P62813)
Chain of Gamma-aminobutyric acid receptor subunit alpha-1 (P62813 whole entry): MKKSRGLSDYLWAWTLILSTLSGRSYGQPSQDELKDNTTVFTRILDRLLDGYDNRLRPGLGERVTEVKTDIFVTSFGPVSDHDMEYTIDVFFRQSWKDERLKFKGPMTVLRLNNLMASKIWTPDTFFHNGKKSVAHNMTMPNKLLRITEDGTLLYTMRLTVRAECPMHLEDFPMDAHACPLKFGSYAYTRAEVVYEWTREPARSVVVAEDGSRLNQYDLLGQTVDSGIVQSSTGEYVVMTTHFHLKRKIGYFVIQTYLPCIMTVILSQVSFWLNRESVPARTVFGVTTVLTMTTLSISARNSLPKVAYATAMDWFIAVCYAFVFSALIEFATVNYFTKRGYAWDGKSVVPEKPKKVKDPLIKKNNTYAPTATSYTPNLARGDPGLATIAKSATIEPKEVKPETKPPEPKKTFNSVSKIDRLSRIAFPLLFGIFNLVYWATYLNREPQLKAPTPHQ

[7] = target: T4, 5-hydroxytryptamine receptor 1A (Homo sapiens, UniProt P08908); assay type: functional, cell-based
T4 sequence (P08908 whole entry): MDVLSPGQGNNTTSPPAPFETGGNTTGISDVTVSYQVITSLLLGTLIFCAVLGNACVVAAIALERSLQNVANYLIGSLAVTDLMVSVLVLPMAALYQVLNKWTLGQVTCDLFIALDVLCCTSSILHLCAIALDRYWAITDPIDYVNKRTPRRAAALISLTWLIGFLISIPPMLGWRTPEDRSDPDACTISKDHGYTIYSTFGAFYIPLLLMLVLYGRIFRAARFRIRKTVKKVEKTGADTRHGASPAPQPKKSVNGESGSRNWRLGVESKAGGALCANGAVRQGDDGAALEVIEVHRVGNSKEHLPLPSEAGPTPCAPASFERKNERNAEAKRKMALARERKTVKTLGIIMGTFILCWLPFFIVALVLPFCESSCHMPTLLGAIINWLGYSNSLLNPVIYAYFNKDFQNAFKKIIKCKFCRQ

[8] = target: 5-hydroxytryptamine receptor 2A (Homo sapiens, UniProt P28223); assay type: functional, cell-based
Chain of 5-hydroxytryptamine receptor 2A (P28223 whole entry): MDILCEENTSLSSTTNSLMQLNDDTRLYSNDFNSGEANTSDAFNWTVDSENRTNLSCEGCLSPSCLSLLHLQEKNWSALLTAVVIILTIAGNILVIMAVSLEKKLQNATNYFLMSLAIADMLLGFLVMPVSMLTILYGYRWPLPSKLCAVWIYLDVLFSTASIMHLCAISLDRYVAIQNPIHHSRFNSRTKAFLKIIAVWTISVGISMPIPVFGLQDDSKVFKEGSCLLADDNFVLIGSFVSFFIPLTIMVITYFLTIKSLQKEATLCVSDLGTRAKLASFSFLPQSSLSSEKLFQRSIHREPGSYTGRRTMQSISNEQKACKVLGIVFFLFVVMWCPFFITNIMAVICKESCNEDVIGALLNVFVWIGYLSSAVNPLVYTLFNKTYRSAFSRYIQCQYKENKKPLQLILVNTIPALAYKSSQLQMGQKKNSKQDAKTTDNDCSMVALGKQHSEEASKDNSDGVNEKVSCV

[9] = target: 5-hydroxytryptamine receptor 2B (Homo sapiens, UniProt P41595); assay type: functional, cell-based
Chain of 5-hydroxytryptamine receptor 2B (P41595 whole entry): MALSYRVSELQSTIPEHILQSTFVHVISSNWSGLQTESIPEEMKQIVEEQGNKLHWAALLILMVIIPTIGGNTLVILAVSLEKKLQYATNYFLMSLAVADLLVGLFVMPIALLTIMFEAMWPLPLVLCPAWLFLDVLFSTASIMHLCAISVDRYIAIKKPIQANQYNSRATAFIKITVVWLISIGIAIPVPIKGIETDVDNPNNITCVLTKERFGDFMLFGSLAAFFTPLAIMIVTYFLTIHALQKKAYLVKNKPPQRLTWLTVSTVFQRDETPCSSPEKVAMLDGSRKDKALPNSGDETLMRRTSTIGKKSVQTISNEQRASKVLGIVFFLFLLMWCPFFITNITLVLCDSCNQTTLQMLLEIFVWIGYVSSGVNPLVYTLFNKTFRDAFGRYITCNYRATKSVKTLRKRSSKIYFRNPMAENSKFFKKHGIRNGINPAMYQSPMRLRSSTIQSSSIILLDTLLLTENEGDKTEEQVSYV

[10] = target: T5, Glucocorticoid receptor (Homo sapiens, UniProt P04150)
T5 sequence (P04150 whole entry): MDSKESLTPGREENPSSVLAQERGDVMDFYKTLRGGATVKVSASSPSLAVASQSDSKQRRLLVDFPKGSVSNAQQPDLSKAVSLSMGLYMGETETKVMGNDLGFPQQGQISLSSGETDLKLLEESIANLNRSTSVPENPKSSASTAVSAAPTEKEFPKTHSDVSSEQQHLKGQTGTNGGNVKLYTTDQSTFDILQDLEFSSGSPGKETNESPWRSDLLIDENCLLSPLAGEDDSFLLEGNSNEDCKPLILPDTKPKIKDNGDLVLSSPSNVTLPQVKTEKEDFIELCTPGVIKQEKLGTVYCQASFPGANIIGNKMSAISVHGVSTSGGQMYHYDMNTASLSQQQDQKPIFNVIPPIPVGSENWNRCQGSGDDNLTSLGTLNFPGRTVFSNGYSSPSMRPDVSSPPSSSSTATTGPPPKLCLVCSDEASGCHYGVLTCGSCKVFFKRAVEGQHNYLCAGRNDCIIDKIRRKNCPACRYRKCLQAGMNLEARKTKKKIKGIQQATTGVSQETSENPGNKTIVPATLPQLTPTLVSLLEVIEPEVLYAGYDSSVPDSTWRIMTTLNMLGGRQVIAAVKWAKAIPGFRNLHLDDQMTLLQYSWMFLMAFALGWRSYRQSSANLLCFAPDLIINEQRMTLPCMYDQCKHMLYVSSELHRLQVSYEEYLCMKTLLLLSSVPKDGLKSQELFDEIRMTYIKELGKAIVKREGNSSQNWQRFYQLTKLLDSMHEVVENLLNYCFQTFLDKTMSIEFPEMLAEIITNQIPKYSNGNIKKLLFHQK

[11] = target: Delta-type opioid receptor (Homo sapiens, UniProt P41143)
Chain of Delta-type opioid receptor (P41143 whole entry): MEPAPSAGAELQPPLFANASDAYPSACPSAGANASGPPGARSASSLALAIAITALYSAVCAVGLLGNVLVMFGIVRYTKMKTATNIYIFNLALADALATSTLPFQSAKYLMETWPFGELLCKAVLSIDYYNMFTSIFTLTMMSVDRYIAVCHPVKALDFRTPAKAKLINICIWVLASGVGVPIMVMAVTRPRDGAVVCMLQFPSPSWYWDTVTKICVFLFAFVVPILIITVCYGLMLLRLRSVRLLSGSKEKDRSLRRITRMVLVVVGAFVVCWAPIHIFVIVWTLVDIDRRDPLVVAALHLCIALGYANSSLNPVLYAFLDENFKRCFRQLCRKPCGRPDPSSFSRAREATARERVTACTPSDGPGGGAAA

[12] = target: Kappa-type opioid receptor (Homo sapiens, UniProt P41145)
Chain of Kappa-type opioid receptor (P41145 whole entry): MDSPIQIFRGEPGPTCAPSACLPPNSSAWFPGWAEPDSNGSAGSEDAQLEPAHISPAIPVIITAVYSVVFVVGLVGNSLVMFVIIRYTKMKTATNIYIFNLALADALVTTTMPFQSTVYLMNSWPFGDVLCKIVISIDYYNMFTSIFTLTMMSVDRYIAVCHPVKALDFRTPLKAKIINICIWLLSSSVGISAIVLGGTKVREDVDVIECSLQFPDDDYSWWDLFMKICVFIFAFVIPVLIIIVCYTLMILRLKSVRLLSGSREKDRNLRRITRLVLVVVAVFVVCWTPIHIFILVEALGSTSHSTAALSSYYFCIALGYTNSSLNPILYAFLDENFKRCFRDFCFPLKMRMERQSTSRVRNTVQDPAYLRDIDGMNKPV

[13] = target: Histamine H3 receptor (Homo sapiens, UniProt Q9Y5N1)
Chain of Histamine H3 receptor (Q9Y5N1 whole entry): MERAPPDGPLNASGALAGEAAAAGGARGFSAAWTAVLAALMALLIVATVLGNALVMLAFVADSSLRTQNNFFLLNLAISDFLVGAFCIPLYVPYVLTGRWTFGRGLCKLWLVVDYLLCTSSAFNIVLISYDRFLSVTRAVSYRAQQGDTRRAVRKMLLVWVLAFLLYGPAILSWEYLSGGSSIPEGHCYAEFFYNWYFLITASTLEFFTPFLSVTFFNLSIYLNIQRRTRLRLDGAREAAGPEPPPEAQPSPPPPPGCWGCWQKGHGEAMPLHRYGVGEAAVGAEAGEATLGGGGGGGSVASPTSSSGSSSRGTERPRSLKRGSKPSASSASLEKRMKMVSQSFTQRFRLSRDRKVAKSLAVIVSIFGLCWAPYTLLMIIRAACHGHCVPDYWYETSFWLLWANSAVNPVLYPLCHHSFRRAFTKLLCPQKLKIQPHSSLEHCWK
Further: assay procedure not described here.

Structure (SMILES): CCCCc1ncc(/C=C(\Cc2cccs2)C(=O)O)n1Cc1ccc(C(=O)O)cc1 [EPROSARTAN]
- AC50 [1]: > 10 µM
- AC50 [2]: > 10 µM
- AC50 [3]: > 30 µM
- AC50 [4]: > 10 µM
- AC50 [5]: > 30 µM
- AC50 [6]: > 10 µM
- AC50 [7]: > 10 µM
- AC50 [8]: > 30 µM
- AC50 [9]: > 10 µM
- AC50 [10]: > 30 µM
- AC50 [11]: > 10 µM
- AC50 [12]: > 10 µM
- AC50 [13]: > 10 µM

Structure (SMILES): COc1cc2c(N)nc(N3CCN(C(=O)OCC(C)(C)O)CC3)nc2c(OC)c1OC [TRIMAZOSIN]
- AC50 [1]: > 30 µM
- AC50 [2]: > 30 µM
- AC50 [3]: > 30 µM
- AC50 [4]: > 30 µM
- AC50 [5]: > 30 µM
- AC50 [6]: > 30 µM
- AC50 [7]: > 30 µM
- AC50 [8]: > 30 µM
- AC50 [9]: > 30 µM
- AC50 [10]: > 30 µM
- AC50 [11]: > 30 µM
- AC50 [12]: > 30 µM
- AC50 [13]: > 30 µM

Structure (SMILES): O=C(O)/C=C/c1ccc(Cn2ccnc2)cc1 [OZAGREL]
- AC50 [1]: > 30 µM
- AC50 [2]: > 30 µM
- AC50 [3]: > 30 µM
- AC50 [4]: > 30 µM
- AC50 [5]: > 30 µM
- AC50 [6]: > 30 µM
- AC50 [7]: > 30 µM
- AC50 [8]: > 30 µM
- AC50 [9]: > 30 µM
- AC50 [10]: > 30 µM
- AC50 [11]: > 30 µM
- AC50 [12]: > 30 µM
- AC50 [13]: > 30 µM

Structure (SMILES): O=C(O)CCCCCCNC1c2ccccc2CCc2ccccc21 [AMINEPTINE]
- AC50 [1]: > 30 µM
- AC50 [2]: > 30 µM
- AC50 [3]: > 30 µM
- AC50 [4]: > 30 µM
- AC50 [5]: > 30 µM
- AC50 [6]: > 30 µM
- AC50 [7]: > 30 µM
- AC50 [8]: > 30 µM
- AC50 [9]: > 30 µM
- AC50 [10]: > 30 µM
- AC50 [11]: > 30 µM
- AC50 [12]: > 30 µM
- AC50 [13]: > 30 µM

Structure (SMILES): COc1ccc(CCN(C)CCCC(C#N)(c2cc(OC)c(OC)c(OC)c2)C(C)C)cc1OC (stereo not given) [GALLOPAMIL]
- AC50 [1]: > 30 µM
- AC50 [2]: > 30 µM
- AC50 [3]: > 30 µM
- AC50 [4]: > 30 µM
- AC50 [5]: > 30 µM
- AC50 [6]: > 30 µM
- AC50 [7]: > 30 µM
- AC50 [8]: 3.6 µM
- AC50 [9]: > 30 µM
- AC50 [10]: > 30 µM
- AC50 [11]: > 30 µM
- AC50 [12]: 2.5 µM
- AC50 [13]: > 30 µM

Structure (SMILES): OC(CNCC(O)C1CCc2cc(F)ccc2O1)C1CCc2cc(F)ccc2O1 (stereo not given) [NEBIVOLOL]
- AC50 [1]: > 30 µM
- AC50 [2]: > 30 µM
- AC50 [3]: 29 µM
- AC50 [4]: > 30 µM
- AC50 [5]: > 30 µM
- AC50 [6]: > 30 µM
- AC50 [7]: 1.6 µM
- AC50 [8]: 7.1 µM
- AC50 [9]: > 30 µM
- AC50 [10]: > 30 µM
- AC50 [11]: > 30 µM
- AC50 [12]: 10 µM
- AC50 [13]: 23 µM

Structure (SMILES): CCCCCCOc1ccccc1C(N)=O [EXALAMIDE]
- AC50 [1]: > 30 µM
- AC50 [2]: 13 µM
- AC50 [3]: > 30 µM
- AC50 [4]: > 30 µM
- AC50 [5]: > 30 µM
- AC50 [6]: > 30 µM
- AC50 [7]: > 30 µM
- AC50 [8]: > 30 µM
- AC50 [9]: > 30 µM
- AC50 [10]: > 30 µM
- AC50 [11]: > 30 µM
- AC50 [12]: 9.3 µM
- AC50 [13]: > 30 µM

Structure (SMILES): CCOC(=O)[N-]c1cn(N2CCOCC2)n[o+]1 [MOLSIDOMINE]
- AC50 [1]: > 30 µM
- AC50 [2]: > 30 µM
- AC50 [3]: > 30 µM
- AC50 [4]: > 30 µM
- AC50 [5]: > 30 µM
- AC50 [6]: > 30 µM
- AC50 [7]: > 30 µM
- AC50 [8]: > 30 µM
- AC50 [9]: > 30 µM
- AC50 [10]: > 30 µM
- AC50 [11]: > 10 µM
- AC50 [12]: > 30 µM
- AC50 [13]: > 30 µM

Structure (SMILES): NCC(=O)CCC(=O)O [AMINOLEVULINIC ACID]
- AC50 [1]: > 30 µM
- AC50 [2]: > 30 µM
- AC50 [3]: > 30 µM
- AC50 [4]: > 30 µM
- AC50 [5]: > 30 µM
- AC50 [6]: > 30 µM
- AC50 [7]: > 30 µM
- AC50 [8]: > 30 µM
- AC50 [9]: > 30 µM
- AC50 [10]: > 30 µM
- AC50 [11]: > 30 µM
- AC50 [12]: > 30 µM
- AC50 [13]: > 30 µM

Structure (SMILES): CN1C(=O)C(O)N=C(c2ccccc2Cl)c2cc(Cl)ccc21 (stereo not given) [LORMETAZEPAM]
- AC50 [1]: > 30 µM
- AC50 [2]: 16 µM
- AC50 [3]: > 30 µM
- AC50 [4]: > 30 µM
- AC50 [5]: > 30 µM
- AC50 [6]: > 30 µM
- AC50 [7]: > 30 µM
- AC50 [8]: > 30 µM
- AC50 [9]: > 30 µM
- AC50 [10]: > 30 µM
- AC50 [11]: > 30 µM
- AC50 [12]: 8.1 µM
- AC50 [13]: > 30 µM
